# From patent US8772002B1, “Method for treatment of microorganisms during propagation, conditioning and fermentation using hops acid extracts and organic acid” (Hercules Incorporated, priority 2013, dated 2014)
# Like-named read-outs stand apart in the source and are kept apart here.
# Assays:
# Lactobacillus plantarum = assay: Minimal Inhibitory Concentration (MIC), two-fold dilution series in 96 well microplate; format: cell-based; conditions: for MIC: Lactiplantibacillus plantarum
# Procedure: This is the lowest concentration of a substance or substances which can achieve complete inhibition of growth.
# In order to determine the Minimal Inhibitory Concentration, a two-fold dilution series of the antimicrobial is constructed with the dilutions being made in growth media. The dilutions are made in a 96 well microplate such that each well has a final volume of 280 μl of media and antimicrobial. […] After the dilution series is constructed the wells receive an inoculum of microbe suspended in growth media such that the final concentration of microbes in the well is i˜5×10^5 cfu/ml. In these examples the test microbe used is Lactobacillus plantarum. The cultures are incubated at 37° C. for 18-24 hours, and the wells scored as positive or negative for growth based on a visual examination for turbid wells, with turbidity being an indicator of growth.
# (§1) Minimal inhibitory concentrations were determined for both citric acid and hops acid at pH 6 using the protocol described above with Lactobacillus plantarum as the test microbe. Checkerboard synergy plates were constructed as described, the wells inoculated to a final concentration of ˜5×10^5 cfu/ml, incubated for 18-24 hours, and then scored visually for growth/no growth.
# as §1, with “benzoic” for “citric”
# fermentation = conditions: cited from earlier work
# Weisella confusa = conditions: cited from earlier work
molecule,measurement,setting,value
"O=C(O)CC(O)(CC(=O)O)C(=O)O [Citric Acid, citric acid]",MIC,"Lactobacillus plantarum; pH 6, 37° C., 18-24 hours, complete inhibition of growth, read-out: Citric Acid MIC (QA) used alone",100 mg/mL
same,Citric Acid MIC (QA) used alone,"Lactobacillus plantarum; pH 6, 37° C., 18-24 hours, complete inhibition of growth",100000 ppm
Virginiamycin,concentration that will suppress fermentation,fermentation,over 2 mg/L
same,concentration required to inhibit growth of Weisella confusa,Weisella confusa,over 25 mg/L
"O=C(O)c1ccccc1 [Benzoic Acid, benzoic acid]",MIC,"Lactobacillus plantarum; pH 6, read-out: Benzoic Acid MIC (QA) used alone",100 mg/mL
